The values that follow come from patent US5679671A, “Amino acid derivative” (Eisai Co., Ltd., priority 1993, dated 1997).

The test addresses T1, ACE (Rattus norvegicus, UniProt P47820).
T1 construct: membrane fraction prepared from rat lung; from tissue; host or cells: rat lung, membrane fraction (method of Wu-Wong et al.)
T1 sequence (P47820 36-1313): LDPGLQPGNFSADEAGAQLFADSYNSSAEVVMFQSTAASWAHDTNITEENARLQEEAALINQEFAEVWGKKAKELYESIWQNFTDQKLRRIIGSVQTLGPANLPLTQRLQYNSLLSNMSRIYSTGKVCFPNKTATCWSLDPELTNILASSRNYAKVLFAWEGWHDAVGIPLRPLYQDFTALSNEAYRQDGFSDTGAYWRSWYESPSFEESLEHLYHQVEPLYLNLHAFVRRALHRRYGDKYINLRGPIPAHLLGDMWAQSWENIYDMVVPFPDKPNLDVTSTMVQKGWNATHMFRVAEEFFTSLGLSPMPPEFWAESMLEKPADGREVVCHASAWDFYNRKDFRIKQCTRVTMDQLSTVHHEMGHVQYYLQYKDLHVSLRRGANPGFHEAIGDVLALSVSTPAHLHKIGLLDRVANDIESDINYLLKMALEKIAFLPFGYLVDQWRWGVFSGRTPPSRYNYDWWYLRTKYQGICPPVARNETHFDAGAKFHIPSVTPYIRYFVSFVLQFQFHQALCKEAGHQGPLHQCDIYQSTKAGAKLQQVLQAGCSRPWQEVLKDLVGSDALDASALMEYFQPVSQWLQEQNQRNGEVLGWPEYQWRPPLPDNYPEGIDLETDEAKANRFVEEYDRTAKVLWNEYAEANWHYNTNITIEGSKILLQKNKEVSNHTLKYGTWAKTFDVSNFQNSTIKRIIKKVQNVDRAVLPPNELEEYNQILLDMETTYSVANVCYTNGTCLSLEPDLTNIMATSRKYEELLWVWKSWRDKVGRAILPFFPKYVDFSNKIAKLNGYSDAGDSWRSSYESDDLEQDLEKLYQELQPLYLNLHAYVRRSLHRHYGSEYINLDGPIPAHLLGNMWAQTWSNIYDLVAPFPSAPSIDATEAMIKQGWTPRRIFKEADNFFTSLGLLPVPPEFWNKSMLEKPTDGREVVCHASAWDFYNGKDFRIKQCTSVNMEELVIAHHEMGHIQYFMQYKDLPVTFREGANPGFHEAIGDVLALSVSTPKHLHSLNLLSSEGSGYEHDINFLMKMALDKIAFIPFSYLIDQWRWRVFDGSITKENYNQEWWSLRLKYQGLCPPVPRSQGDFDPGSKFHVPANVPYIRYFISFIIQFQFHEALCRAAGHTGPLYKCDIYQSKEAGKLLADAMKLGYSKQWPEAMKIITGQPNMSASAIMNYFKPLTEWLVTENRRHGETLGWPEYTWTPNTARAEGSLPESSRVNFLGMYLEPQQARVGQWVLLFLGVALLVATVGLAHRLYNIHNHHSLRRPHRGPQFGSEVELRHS
Nature of the test: ACE inhibition activity using rat lung (Experiment C-2). Type of test: biochemical. The note with it: Table C-1; rat lung membrane fraction, borate buffer pH 8.3. The method, then:
The ACE inhibition activity was determined by using a membrane fraction prepared from rat lung in accordance with the method of Wu-Wong et al. (Characterization of Endthelin Converting Enzyme in Rat Lung., Junshyum R. Wu-Wong, Gerald P. Budzik, Edward M. Devine and Terry J. Opgenorth, Biochem. Biophys. Res. Commun., 1990, 171, 1291-1296.).
The ACE activity was determined with the use of a modification (modified to a borate buffer, pH 8.3) of the method of Cushman and Cheung (Spectrophotometric Assay and Properties of the Angiotensin-Converting Enzyme of Rabbit Lung., Cushman D. W. and Cheung H. S., 1971, 20, 1637-1648.).
In the presence of ACE, the hippurate liberated from hippuryl-histidyl-leucine (Hippuryl-His-Leu (PeptideInstitute Inc., Japan)) was extracted with ethyl acetate and then the absorbance was measured at a wavelength of 228 nm.
With respect to the ACE inhibition activity, the test compound was added to the reaction system as described above in such a manner as to give the final concentrations of 1, 3, 10, 30, 100, 300 and 1000 nM, an inhibition curve was prepared, and then the concentration at which 50% inhibition was achieved was taken as IC50. As a comparative compound, [4S-[4α,7α(R*),12bβ]]-7-[(1-oxo-2-(S)-thio-3-phenyl-propyl)amino]-1,2,3,4,6,7,8,12b-octahydro-6-oxopyrido-[2,1-a][2]benzazepine-4-carboxylic acid was used.
`CC[C@H](C)[C@H](S)C(=O)N[C@H]1CCC[C@H]2SC[C@@H](C(=O)O)N2C1=O` [Example C-8, [3R-[3α,6α,(S*),9aβ]]-6-[[(2S,3S)-3-methyl-1-oxo-2-thiopentyl]amino]-octahydro-5-oxothiazol[3,2-a]-azepine-3-carboxylic acid] showed an IC50 of 5.3 nM.
As for `CC[C@H](C)[C@H](S)C(=O)N[C@H]1Cc2ccc(-c3ccccc3)cc2[C@H]2CCC[C@@H](C(=O)O)N2C1=O` [Example C-14, [4S-[4α,7α(R*),12bβ]]-7-[[(2S,3S)-3-Methyl-1-oxo-2-thiopentyl]amino]-6-oxo-11-phenyl-1,2,3,4,6,7,8,12b-octahydropyrido[2,1-a][2]benzazepine-4-carboxylic acid], the figure is 12.3 nM.
To `CC[C@H](C)[C@H](S)C(=O)NC1CCc2ccccc2N(CC(=O)O)C1=O` (stereo partly drawn) [Example A-9, 1-Carboxymethyl-3-[(2S,3S)-2-mercapto-3-methylvarelylamino]-1H-[1]benzazepin-2-one] belongs 13 nM; to `CC[C@H](C)[C@H](S)C(=O)N[C@H]1CCc2ccccc2N(CC(=O)O)C1=O` [Example A-11, (S)-3-[(2S,3S)-2-Mercapto-3-methylvarelylamino]-1-carboxymethyl-2,3,4,5-tetrahydro-1H-[1]benzazepin-2-one], 11 nM; to `O=C(N[C@H]1Cc2ccccc2[C@H]2CCC[C@@H](C(=O)O)N2C1=O)[C@@H](S)Cc1ccccc1` [Comp. cpd. E-1, [4S-[4α,7α(R*),12bβ]]-7-[(1-oxo-2-(S)-thio-3-phenyl-propyl)amino]-1,2,3,4,6,7,8,12b-octahydro-6-oxopyrido-[2,1-a][2]benzazepine-4-carboxylic acid, reference compound], 9 nM.
